We go through 1 compound from paper PMC6222819, “Assessment of Binding Interaction between Bovine Lactoferrin and Tetracycline Hydrochloride: Multi-Spectroscopic Analyses and Molecular Modeling” (Molecules : A Journal of Synthetic Chemistry and Natural …, 2018).

This assay deals with T1, bovine lactoferrin (bLf) (Bos taurus, UniProt P24627).
T1 construct: gene LTF; 80 kDa; single polypeptide chain
Nature of the assay: microscale thermophoresis. In kind it is binding.

Structures can show the parent of a compound that is named as a salt.

T1 sequence (P24627 20-708): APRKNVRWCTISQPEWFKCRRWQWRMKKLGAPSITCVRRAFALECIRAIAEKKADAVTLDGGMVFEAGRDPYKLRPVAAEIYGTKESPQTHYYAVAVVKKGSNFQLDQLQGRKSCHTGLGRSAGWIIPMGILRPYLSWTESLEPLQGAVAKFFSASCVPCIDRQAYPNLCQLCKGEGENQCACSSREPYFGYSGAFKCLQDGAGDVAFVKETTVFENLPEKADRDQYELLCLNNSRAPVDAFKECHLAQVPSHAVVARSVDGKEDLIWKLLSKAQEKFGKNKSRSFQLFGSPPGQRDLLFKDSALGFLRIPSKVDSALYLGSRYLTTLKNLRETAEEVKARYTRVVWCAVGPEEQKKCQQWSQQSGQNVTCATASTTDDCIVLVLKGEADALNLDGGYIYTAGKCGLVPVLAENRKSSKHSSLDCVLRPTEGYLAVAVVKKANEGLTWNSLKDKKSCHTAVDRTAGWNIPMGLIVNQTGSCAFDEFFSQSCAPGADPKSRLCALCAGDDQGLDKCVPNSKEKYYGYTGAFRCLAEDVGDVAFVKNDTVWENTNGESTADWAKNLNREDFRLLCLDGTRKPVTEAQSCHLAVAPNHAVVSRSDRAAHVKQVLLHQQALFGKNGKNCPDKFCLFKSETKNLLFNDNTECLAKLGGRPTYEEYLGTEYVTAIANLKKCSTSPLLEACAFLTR

Regarding `CN(C)[C@@H]1C(O)=C(C(N)=O)C(=O)[C@@]2(O)C(O)=C3C(=O)c4c(O)cccc4[C@@](C)(O)[C@H]3C[C@@H]12` [Tetracycline hydrochloride], the Kd is 35.2 µM.
